Each block holds one molecule with its values, some of them ahead of it. Active and inactive are the calls of the source.
Columns and labels:
[1] = target: T1, Short transient receptor potential channel 4 (Mus musculus, UniProt Q9QUQ5); experiment: potentiation of DAMGO-evoked TRPC4 calcium signal – cell-based, HEK293 TRPC4/mu-opioid, Fluo-4 calcium, EC20 DAMGO, dose response (AID 434941); format: functional
T1 sequence (Q9QUQ5 whole entry): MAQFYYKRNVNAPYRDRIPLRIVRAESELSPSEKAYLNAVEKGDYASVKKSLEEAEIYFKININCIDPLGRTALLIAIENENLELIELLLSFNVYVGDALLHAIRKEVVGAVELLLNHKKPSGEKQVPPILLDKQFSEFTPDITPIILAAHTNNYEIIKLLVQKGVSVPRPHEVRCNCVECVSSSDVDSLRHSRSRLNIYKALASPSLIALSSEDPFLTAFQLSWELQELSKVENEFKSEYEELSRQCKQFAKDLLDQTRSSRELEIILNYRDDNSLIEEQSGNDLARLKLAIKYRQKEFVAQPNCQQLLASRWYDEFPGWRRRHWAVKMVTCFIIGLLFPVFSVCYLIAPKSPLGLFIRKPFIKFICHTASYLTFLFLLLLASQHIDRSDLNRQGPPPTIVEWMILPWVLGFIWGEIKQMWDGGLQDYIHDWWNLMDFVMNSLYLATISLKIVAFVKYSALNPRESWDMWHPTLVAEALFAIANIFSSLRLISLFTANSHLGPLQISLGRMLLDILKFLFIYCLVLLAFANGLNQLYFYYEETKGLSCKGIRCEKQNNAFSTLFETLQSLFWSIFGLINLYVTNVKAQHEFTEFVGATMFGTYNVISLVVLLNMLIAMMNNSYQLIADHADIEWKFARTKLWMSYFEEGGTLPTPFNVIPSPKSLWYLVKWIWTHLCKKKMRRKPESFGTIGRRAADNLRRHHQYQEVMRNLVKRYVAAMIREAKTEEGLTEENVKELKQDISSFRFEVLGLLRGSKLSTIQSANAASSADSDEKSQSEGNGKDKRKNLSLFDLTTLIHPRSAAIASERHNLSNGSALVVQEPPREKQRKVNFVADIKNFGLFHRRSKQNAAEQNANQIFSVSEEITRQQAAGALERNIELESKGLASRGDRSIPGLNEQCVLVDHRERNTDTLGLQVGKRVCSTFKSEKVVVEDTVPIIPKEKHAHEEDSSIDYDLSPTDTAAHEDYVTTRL

[2] = potency of ADAM10 substrate cleavage blockers – biochemical, QFRET, dose response (AID 743254);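 also: ADAM10 enzyme with the DM2 quenched FRET peptide as substrate; EDANS fluorescence gain as the protease cuts the substrate; inhibitor potency against ADAM10 proteolytic activity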
[3] = target: Disintegrin and metalloproteinase domain-containing protein 17 (Homo sapiens, UniProt P78536); experiment: inhibition of ADAM17 substrate cleavage – biochemical, quenched FRET substrate, counter-screen for ADAM10 exosite inhibitor project, dose response (AID 743253)
Estrogen receptor = target: T2, Estrogen receptor (Homo sapiens, UniProt P03372); experiment: ERα coactivator recruitment enhancers – biochemical, TR-FRET, ERα LBD, dose response (AID 737)
T2 sequence (P03372 whole entry): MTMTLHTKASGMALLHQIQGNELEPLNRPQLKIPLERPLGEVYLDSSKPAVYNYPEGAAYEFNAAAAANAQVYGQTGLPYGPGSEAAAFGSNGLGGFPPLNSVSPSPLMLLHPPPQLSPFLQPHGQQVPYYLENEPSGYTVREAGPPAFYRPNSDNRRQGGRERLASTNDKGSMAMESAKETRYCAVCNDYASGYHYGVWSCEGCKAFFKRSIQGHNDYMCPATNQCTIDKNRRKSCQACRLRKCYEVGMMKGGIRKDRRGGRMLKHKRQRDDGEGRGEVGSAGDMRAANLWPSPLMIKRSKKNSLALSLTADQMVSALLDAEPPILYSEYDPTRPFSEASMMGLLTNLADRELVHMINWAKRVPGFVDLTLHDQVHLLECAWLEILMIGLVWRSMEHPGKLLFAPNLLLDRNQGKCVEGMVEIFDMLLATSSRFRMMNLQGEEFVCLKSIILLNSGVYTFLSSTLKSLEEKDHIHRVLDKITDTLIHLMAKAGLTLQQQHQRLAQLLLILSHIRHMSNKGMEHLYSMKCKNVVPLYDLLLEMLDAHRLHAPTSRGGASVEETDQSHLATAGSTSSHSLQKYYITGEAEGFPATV

[4] = target: G-protein coupled receptor 55 (Homo sapiens, UniProt Q9Y2T6); experiment: selective activators of receptor GPR55 – imaging, U2OS cells, beta-arrestin-GFP redistribution, primary screen (AID 1961); format: functional
HeLa = experiment: viability loss in HeLa cells – cell-based, 24 h, cherry-picked samples, cytotoxicity control, dose response (AID 504726); format: functional; settings: Homo sapiens;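 also: potency for cytotoxicity as loss of luminescence signal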
Salmon testes DNA = experiment: acridine orange-DNA binding displacement – biochemical, fluorescence polarization, cherry-picked samples, set 2, artefact control for KSHV LANA DNA-binding inhibitor project, dose response (AID 504727); design: species or system Salmonidae
ORF 73 = target: T3, ORF 73 (Human herpesvirus 8, UniProt O40947); experiment: KSHV LANA DNA-binding disruption – biochemical, fluorescence polarization, cherry-picked samples, dose response (AID 504725); design: species or system Human gammaherpesvirus 8;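 also: fluorescence polarization of a labeled DNA duplex reporting LANA DNA binding; potency is for inhibitors that block LANA binding to the DNA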
T3 sequence (O40947 whole entry): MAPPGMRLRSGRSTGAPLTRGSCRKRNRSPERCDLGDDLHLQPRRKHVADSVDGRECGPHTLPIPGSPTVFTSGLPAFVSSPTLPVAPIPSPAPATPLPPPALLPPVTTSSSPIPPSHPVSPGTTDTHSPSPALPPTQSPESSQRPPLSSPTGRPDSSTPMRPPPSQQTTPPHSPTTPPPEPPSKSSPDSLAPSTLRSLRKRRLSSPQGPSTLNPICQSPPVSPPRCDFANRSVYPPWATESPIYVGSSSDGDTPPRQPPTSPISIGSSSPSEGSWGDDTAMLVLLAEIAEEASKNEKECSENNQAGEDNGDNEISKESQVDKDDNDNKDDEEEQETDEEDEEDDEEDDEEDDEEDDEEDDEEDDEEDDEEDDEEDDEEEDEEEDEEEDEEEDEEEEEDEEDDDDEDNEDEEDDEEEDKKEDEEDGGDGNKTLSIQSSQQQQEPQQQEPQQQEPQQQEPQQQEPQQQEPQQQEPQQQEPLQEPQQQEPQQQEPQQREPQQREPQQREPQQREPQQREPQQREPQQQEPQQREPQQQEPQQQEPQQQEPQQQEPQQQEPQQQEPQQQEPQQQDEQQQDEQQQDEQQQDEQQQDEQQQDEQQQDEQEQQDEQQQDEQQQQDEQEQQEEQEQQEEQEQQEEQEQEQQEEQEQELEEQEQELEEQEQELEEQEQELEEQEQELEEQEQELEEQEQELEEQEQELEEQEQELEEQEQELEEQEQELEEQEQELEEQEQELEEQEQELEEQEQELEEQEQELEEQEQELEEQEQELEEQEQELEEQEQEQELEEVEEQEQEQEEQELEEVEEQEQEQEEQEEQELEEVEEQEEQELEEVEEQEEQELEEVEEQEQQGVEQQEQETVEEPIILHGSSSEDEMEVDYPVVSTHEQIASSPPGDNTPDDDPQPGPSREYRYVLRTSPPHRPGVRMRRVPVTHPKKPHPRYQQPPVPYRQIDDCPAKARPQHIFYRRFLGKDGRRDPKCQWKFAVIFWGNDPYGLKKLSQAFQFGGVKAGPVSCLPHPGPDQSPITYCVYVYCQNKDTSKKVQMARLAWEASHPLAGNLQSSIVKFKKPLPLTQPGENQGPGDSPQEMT

Troponin, cardiac muscle = Troponin, cardiac muscle (Homo sapiens, UniProt P19429+P45379+P63316); experiment: compounds desensitizing RTF to calcium – biochemical, fluorescence, cardiac regulated thin filaments, triplicate IC50, dose response (AID 504742); format: protein-complex assay
Hexokinase HKDC1 = target: T4, Hexokinase HKDC1 (Homo sapiens, UniProt Q2TB90); experiment: inhibition of HKDC1 glucose phosphorylation – biochemical, W721R variant, dose response (AID 504729); format: functional
T4 sequence (Q2TB90 whole entry): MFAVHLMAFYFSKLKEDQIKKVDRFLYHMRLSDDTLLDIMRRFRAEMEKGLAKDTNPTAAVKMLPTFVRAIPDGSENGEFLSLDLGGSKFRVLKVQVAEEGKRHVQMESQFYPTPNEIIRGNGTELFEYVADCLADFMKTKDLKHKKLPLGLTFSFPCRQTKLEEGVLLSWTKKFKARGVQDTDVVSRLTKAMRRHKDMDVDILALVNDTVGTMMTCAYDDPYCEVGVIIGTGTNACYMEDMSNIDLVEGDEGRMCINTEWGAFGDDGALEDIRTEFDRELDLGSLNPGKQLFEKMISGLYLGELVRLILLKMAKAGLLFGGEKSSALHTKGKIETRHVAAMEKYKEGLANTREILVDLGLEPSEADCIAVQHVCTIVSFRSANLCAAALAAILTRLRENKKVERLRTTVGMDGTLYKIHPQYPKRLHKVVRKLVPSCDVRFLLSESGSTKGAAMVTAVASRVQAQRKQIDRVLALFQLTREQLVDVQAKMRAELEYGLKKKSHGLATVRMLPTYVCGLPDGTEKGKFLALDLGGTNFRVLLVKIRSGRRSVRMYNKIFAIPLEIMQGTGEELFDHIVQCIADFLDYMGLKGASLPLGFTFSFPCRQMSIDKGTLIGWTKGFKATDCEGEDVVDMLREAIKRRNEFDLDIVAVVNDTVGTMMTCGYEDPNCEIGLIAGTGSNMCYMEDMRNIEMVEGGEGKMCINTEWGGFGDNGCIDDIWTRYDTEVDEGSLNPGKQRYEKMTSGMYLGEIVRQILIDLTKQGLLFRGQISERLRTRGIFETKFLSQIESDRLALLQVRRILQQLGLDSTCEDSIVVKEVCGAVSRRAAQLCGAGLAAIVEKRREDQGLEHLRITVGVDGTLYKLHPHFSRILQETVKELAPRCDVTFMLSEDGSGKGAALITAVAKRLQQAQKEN

Genome polyprotein = Genome polyprotein (dengue virus type 2, UniProt P29990); experiment: flavivirus cap methylation enzyme inhibition – biochemical, confirmation dose response, primary screen (AID 588689); format: functional
[5] = target: T5, Polyadenylate-binding protein 1 (Homo sapiens, UniProt P11940); experiment: MLLE binding blockers, Cy5 peptide tracer – biochemical, fluorescence polarization, Cy5-PAM2 peptide, secondary, miRNA deadenylation inhibitor project, dose response (AID 602260); format: functional; settings: read-out: IC50_Mean
[6] = target: T5, Polyadenylate-binding protein 1; experiment: MLLE domain peptide-binding blockers, IC50 – biochemical, fluorescence polarization, FITC-PAM2 peptide, dose response (AID 602259); format: functional; settings: read-out: IC50_Mean
[7] = target: T6, Small ubiquitin-related modifier 2 (Homo sapiens, UniProt P61956); experiment: disruption of SUMO2 interaction with SIM peptide – biochemical, fluorescence polarization, uHTS hits, selectivity assay for SUMO1 interaction inhibitor project, dose response (AID 624385); format: functional; settings: read-out: IC50_Mean
[8] = target: T7, Small ubiquitin-related modifier 1 (Homo sapiens, UniProt P63165); experiment: SUMO1 protein interaction blockers, potency – biochemical, fluorescence polarization, uHTS hits, dose response (AID 624382); format: functional; settings: read-out: IC50_Mean
[9] = target: T6, Small ubiquitin-related modifier 2; experiment: SUMO2 binding disruption by SUMO1 hits – biochemical, FRET, human SUMO2, uHTS hits, selectivity assay for SUMO1 interaction inhibitor project, dose response (AID 624384); format: functional; settings: read-out: IC50_Mean
[10] = target: T7, Small ubiquitin-related modifier 1; experiment: SUMO1 protein-protein binding blockers, potency – biochemical, FRET, dose response (AID 624383); format: functional; settings: read-out: IC50_Mean
[11] = target: T8, Rac GTPase-activating protein 1 (Homo sapiens, UniProt Q9H0H5); experiment: blockers of MgcRacGAP-driven Rac1 GTP hydrolysis – biochemical, ADP Hunter fluorescence, primary and confirmatory, confirmation (AID 624330); format: functional
T8 sequence (Q9H0H5 whole entry): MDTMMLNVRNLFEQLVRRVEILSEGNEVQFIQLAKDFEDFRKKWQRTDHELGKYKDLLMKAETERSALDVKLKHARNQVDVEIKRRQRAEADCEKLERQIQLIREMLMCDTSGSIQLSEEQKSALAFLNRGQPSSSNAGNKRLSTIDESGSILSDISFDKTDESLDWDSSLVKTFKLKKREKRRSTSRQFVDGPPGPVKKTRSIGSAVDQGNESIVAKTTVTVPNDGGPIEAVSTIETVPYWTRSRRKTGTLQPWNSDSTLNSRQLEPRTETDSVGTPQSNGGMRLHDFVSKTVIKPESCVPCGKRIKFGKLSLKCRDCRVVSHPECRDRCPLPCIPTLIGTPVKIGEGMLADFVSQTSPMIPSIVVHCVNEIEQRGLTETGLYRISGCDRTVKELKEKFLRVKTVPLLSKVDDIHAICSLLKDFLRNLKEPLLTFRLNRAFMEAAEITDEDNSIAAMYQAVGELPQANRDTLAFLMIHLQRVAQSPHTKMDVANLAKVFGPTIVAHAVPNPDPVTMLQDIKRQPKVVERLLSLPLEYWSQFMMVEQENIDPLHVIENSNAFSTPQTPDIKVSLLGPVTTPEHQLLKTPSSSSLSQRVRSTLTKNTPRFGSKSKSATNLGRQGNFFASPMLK

- EC50 [1]: 10.6 µM (active)
- IC50 [2]: > 69.5 µM (inactive)
- IC50 [3]: > 69.5 µM (inactive)
Compound: O=C(NCc1ccccc1)C1=C[C@H](c2ccc(Br)cc2)C[C@H](OCc2ccc(CO)cc2)O1

- EC50 (Estrogen receptor): 23.1 µM (active)
- EC50 [4]: 20.4 µM (inactive)
Compound: Cc1noc(C)c1COC(=O)c1cc2c3ccccc3n(C)c2s1

Compound: O=S(=O)(O)c1ccc(O)c2cc(Nc3ccccc3)ccc12
- AC50 (HeLa): 233 µM (active)
- AC50 (Salmon testes DNA): 98.3 µM (active)
- AC50 (ORF 73): 6.72 µM (active)
- IC50 (Troponin, cardiac muscle): 3.89 µM (active)
- IC50 (Hexokinase HKDC1): 9.14 µM (active)
- IC50 (Genome polyprotein): 20 µM (active)
- IC50 [5]: > 66 µM (inactive)
- IC50 [6]: > 66 µM (inactive)
- IC50 [7]: 7.83 µM (active)
- IC50 [8]: 11.6 µM (active)
- IC50 [9]: 0.58 µM (active)
- IC50 [10]: 0.88 µM (active)
- IC50 [11]: 19.6 µM (active)

Source: ChEMBL document CHEMBL1201862, “PubChem BioAssay data set” (2004)
